Results published in ChEMBL document CHEMBL1140525, “Conformationally restricted macrocyclic analogues of combretastatins” (Bioorg Med Chem Lett, 2007).

molecular target: T1, Tubulin (Homo sapiens) (UniProt P68371+Q9H4B7+P0DPH7+P68366+Q13509+Q71U36+P04350+Q3ZCM7+P07437+P68363+Q9BQE3+Q6PEY2+Q13885+Q9BVA1+Q9BUF5); experiment: Inhibition of tubulin polymerization at 10 uM; assay type: protein-complex assay

inhibition [%] | Structure (SMILES)
19 | COc1cc2cc(OC)c1OCCCCCCn1ccc3cc(ccc31)/C=C\2

molecular target: T1, Tubulin (Homo sapiens); experiment: Inhibition of tubulin polymerization at 20 uM; assay type: protein-complex assay

inhibition [%] | Structure (SMILES)
11 | COc1cc2cc(OC)c1OCCCCCCn1ccc3cc(ccc31)[C@@H](O)[C@H]2O
9 | COc1cc2cc(OC)c1OCCCCCCn1ccc3cc(ccc31)[C@H](O)[C@H]2O
8 | COc1cc2cc(OC)c1OCCCCCCn1ccc3cc(ccc31)[C@H](OC(C)=O)[C@H]2OC(C)=O
9 | COc1cc2cc(OC)c1OCCCCCCn1ccc3cc(ccc31)[C@@H](OC(C)=O)[C@H]2OC(C)=O

molecular target: T1, Tubulin (Homo sapiens); experiment: Inhibition of tubulin polymerization at 40 uM; assay type: protein-complex assay

Structure (SMILES) | inhibition [%]
COc1cc2cc(OC)c1OCCOCCOc1ccc(cc1)[C@@H](OC(C)=O)[C@H]2OC(C)=O (relative stereo) | 0
COc1cc2cc(OC)c1OCCCCCCOc1ccc(cc1)[C@H](O)[C@H]2O (relative stereo) | 4
COc1cc2cc(OC)c1OCCCCCCOc1ccc(cc1)/C=C\2 | 60
COc1cc2cc(OC)c1OCCOCCOc1ccc(cc1)[C@@H]1OC(C)(C)O[C@H]21 | 0
COc1cc2cc(OC)c1OCCOCCOc1ccc(cc1)[C@@H](O)[C@H]2O (relative stereo) | 0
COc1cc2cc(OC)c1OCCOCCOc1ccc(cc1)[C@H](OC(C)=O)[C@H]2OC(C)=O (relative stereo) | 0
COc1cc2cc(OC)c1OCCOCCOc1ccc(cc1)[C@H](O)[C@H]2O | 0
COc1cc2cc(OC)c1OCCCCCCOc1ccc(cc1)[C@H](OC(C)=O)[C@H]2OC(C)=O | 0

Continued, values first:

inhibition [%] | Structure (SMILES)
2 | COc1cc2cc(OC)c1OCCCCCCOc1ccc(cc1OC(C)=O)[C@H](OC(C)=O)[C@H]2OC(C)=O (relative stereo)
0 | COc1cc2cc(OC)c1OCCOCCOc1ccc(cc1OC(C)=O)[C@@H](OC(C)=O)[C@H]2OC(C)=O (relative stereo)
1 | COc1cc2cc(OC)c1OCCOCCOc1ccc(cc1O)[C@H](O)[C@H]2O (relative stereo)
11 | COc1cc2cc(OC)c1OCCOCCOc1ccc(cc1O)[C@@H](O)[C@H]2O (relative stereo)
0 | COc1cc2cc(OC)c1OCCCCCCOc1ccc(cc1O)/C=C\2
0 | COc1cc2cc(OC)c1OCCOCCOc1ccc(cc1OC(C)=O)[C@H](OC(C)=O)[C@H]2OC(C)=O (relative stereo)

molecular target: T1, Tubulin (Homo sapiens); experiment: Inhibition of tubulin polymerization at 30 uM; assay type: protein-complex assay

inhibition [%] | Structure (SMILES)
0 | COc1cc2cc(OC)c1OCCOCCOc1ccc(cc1)/C=C\2

molecular target: Tubulin; experiment: Inhibition of tubulin polymerization; assay type: protein-complex assay, Homo sapiens

IC50 [µM] | Structure (SMILES)
5 | COc1ccc(C[C@@H](O)c2cc(OC)c(OC)c(OC)c2)cc1O [COMBRETASTATIN]
4 | COc1ccc([C@@H]2OCO[C@H]2c2cc(OC)c(OC)c(OC)c2)cc1O
> 50 | COc1ccc([C@H]2OCO[C@@H]2c2cc(OC)c(OC)c(OC)c2)cc1O
22 | COc1ccc([C@H](O)[C@@H](O)c2cc(OC)c(OC)c(OC)c2)cc1O
> 40 | COc1ccc([C@@H](O)[C@H](O)c2cc(OC)c(OC)c(OC)c2)cc1O

Structure (SMILES) | IC50 [µM]
COc1ccc(/C=C\c2cc(OC)c(OC)c(OC)c2)cc1 | 2.2
